Laboratory results: US6699889B2, “Use of glucose uptake enhancer for reducing post-ischemic injury of the heart” (SmithKline Beecham p.l.c., priority 1998, dated 2004)

Assays:
[1] = test system: isolated working hearts from male Wistar rats; test: Isolated working hearts from normal male Wistar rats: baseline ventricular function and recovery after 30 min zero-flow ischaemia and re-perfusion; conditions: normal rat hearts
Experimental: (§1) A solution of streptozotocin (STZ commercially available) was prepared in citrate buffer (40 mg/ml).
An acclimatisation period of at least one week was allowed prior to experiment.
(§2) Perfusion of isolated hearts: Rats were anaesthetized using thiopental sodium (50 mg/kg body weight intraperitoneally). Hearts from normoglycaemic and one-month STZ-induced diabetic rats, were quickly removed and immersed in ice-cold buffer to produce an immediate cessation of contractility. The aorta was dissected free and then mounted onto a cannula attached to a perfusion apparatus. Retrograde perfusion of the heart was started for 10 min by the Langendorff method and then switched to perfusion using the working-heart technique. […] The perfusate was not recirculated. Preload was held at a pressure of 15 cm H2O and afterload, as well as coronary perfusion pressure, were kept constant at 80 cm H2O.
Stroke volume (ml/beat) was derived by dividing cardiac output by heart rate.
Induction of global ischaemia and re-perfusion: Total ischaemia was initiated by clamping the left atrium and the aortic perfusion tubes and reducing coronary flow to zero for 30 minutes. The hearts were then re-perfused at 37° C. in working heart mode and recovery of ventricular function was followed for 30 minutes.
(§3) Statistical significance of differences was determined using Student's t-test.

[2] = test system: isolated working hearts from STZ-diabetic rats; test: Isolated working hearts from STZ-diabetic male Wistar rats: baseline ventricular function and zero-flow ischaemia and re-perfusion; conditions: diabetic rat hearts
Experimental: as §1
The development of diabetes and its persistence were monitored by serial quantitative measurements of glucose in the urine with reagent strips. On the day of the experiment, the severity of diabetes was assessed by measuring glucose concentrations from blood samples collected at the time of heart excision. Only rats with plasma glucose levels exceeding 20 mM were considered diabetic and included in these experiments.
as §2
Stroke volume (ml/beat) was derived by dividing cardiac output by heart rate. […]
as §3

## CN(CCOc1ccc(CC2SC(=O)NC2=O)cc1)c1ccccn1 (centres unmarked) [Compound (I), 5-[4-[2-(N-methyl-N-(2-pyridyl)amino)ethoxy]benzyl]thiazolidine-2,4-dione]
[1]
  Protective properties in hearts subjected to zero-flow ischaemia in vitro: protective properties of rapid onset
[2]
  Protective properties in hearts subjected to zero-flow ischaemia in vitro: protective properties of rapid onset
